Laboratory results reported in patent US5625043A, “Anthracyclines with unusually high activity against cells resistant to doxorubicin and its analogs” (Priebe; Waldemar, priority 1995, dated 1997).
≈ marks a conversion by molar mass, not a printed value. Entries after “also recorded” stand apart in the source; their conditions may differ. Where two headings read alike, the source gives them in different places.

Key:
[1] = system: KB 3-1 cells; experiment: MTT cytotoxicity assay, DOX-sensitive KB 3-1 cells; assay type: cell-based; details: Homo sapiens
Method: An MTT assay was performed to determine the cytotoxicity of DOX, WP 546, and WP 549 to KB 3-1 (DOX-sensitive) and KB V1 (DOX-resistant) cells. The assay was performed as follows:
Doxorubicin was obtained from the Hospital Pharmacy (Adriamycin, Adria Laboratories, Columbus, Ohio). KB 3-1 human carcinoma and KB V1 were obtained from Dr. Michael M. Gottesman at the National Cancer Institute. KB V1 cells have the MDR phenotype and express glycoprotein P-170 in their membrane (Akiyama et al., Somat. Cell. Mol. Genet., 11:117, 1985; Shen et al., J. Biol. Chem., 261:7762, 1986.). KB 3-1 and KB V1 cells were grown in monolayers in Dulbecco's modified Eagle's medium containing 10% fetal bovine serum. For KB V1 cells, vinblastine was added to the culture medium (final concentration 0.5 μg/ml).
(§1) In vitro drug cytotoxicites against KB 3-1 and KB V1 cells were assessed by using the MTT reduction assay, as previously reported (Green et al., J. Immunol. Methods., 70:257, 1984). The MTT dye was obtained from Sigma Chemical Company, St. Louis, Mo. Cells were plated in 96-well microassay culture plates (10^4 cells/well) and grown for 24 h at 37° C. in a 5% CO2 incubator. Drugs were then added to the wells to achieve a final drug concentration ranging from 0.1 to 50 μg/ml (eight wells were used for each different concentration). The same volume of 0.9% NaCl solution in water with 1% DMSO was added to control wells. Wells containing culture medium alone without cells were used as blanks. The plates were incubated at 37° C. in a 5% CO2 incubator for 1 h (KB cells). When incubation was complete, 15 μl of stock solution of MTT dye in 0.9% NaCl solution in water was added to each well to achieve a final dye concentration of 0.5 mg/ml. […] The optical density of each well was then measured with a microplate spectrophotometer at a wavelength of 600 nm. The percent cell viability was calculated by the following equation: [formula]
(§2) The percent cell viability values obtained were plotted against the drug concentrations used, and the ID50 was calculated from the curve. […]

[2] = system: KB V1 cells; experiment: MTT cytotoxicity assay, DOX-resistant (MDR) KB V1 cells; assay type: cell-based, human; details: for IC50: Homo sapiens; for RI (ID50 KB V1/ID50 KB 3-1): KB V1 versus KB 3-1; for cytotoxicity (in words): KB V1 (MDR, DOX-resistant)
Method: The assay was performed as follows:
Doxorubicin was obtained from the Hospital Pharmacy (Adriamycin, Adria Laboratories, Columbus, Ohio). KB 3-1 human carcinoma and KB V1 were obtained from Dr. Michael M. Gottesman at the National Cancer Institute. […] KB 3-1 and KB V1 cells were grown in monolayers in Dulbecco's modified Eagle's medium containing 10% fetal bovine serum. For KB V1 cells, vinblastine was added to the culture medium (final concentration 0.5 μg/ml).
The MTT dye was obtained from Sigma Chemical Company, St. Louis, Mo. Cells were plated in 96-well microassay culture plates (10^4 cells/well) and grown for 24 h at 37° C. in a 5% CO2 incubator. Drugs were then added to the wells to achieve a final drug concentration ranging from 0.1 to 50 μg/ml (eight wells were used for each different concentration). The same volume of 0.9% NaCl solution in water with 1% DMSO was added to control wells. Wells containing culture medium alone without cells were used as blanks. The plates were incubated at 37° C. in a 5% CO2 incubator for 1 h (KB cells). When incubation was complete, 15 μl of stock solution of MTT dye in 0.9% NaCl solution in water was added to each well to achieve a final dye concentration of 0.5 mg/ml. The plate was incubated at 37° C. in a 5% CO2 incubator for 4 h. […] Complete solubilization was achieved by placing the plate in a mechanical shaker for 30 minutes at room temperature. The optical density of each well was then measured with a microplate spectrophotometer at a wavelength of 600 nm. The percent cell viability was calculated by the following equation: [formula]
(§3) The percent cell viability values obtained were plotted against the drug concentrations used, and the ID50 was calculated from the curve. Experiments were repeated at least three time.

[3] = system: J774.2 cells; experiment: Cytotoxicity against J774.2 cells; assay type: cell-based, murine; details: for IC50: Mus musculus
[4] = system: J7/A300 cells; experiment: Cytotoxicity against AD 198-resistant J7/A300 cells; assay type: cell-based, murine; details: for RI J7/A300: J7/A300 versus J774.2; for IC50: Mus musculus; for cytotoxicity (in words): J7/A300, AD 198-resistant
[5] = system: J7/40V cells; experiment: Cytotoxicity against vinblastine-resistant J7/40V cells; assay type: cell-based, murine; details: for RI J7/40V: J7/40V versus J774.2; for IC50: Mus musculus; for cytotoxicity (in words): vinblastine-resistant
[6] = versus same dose by bolus injections; cited from earlier work
[7] = cited from earlier work
[8] = system: P388 (S) cells; experiment: MTT cytotoxicity assay, AD 198-sensitive P388 (S) cells; assay type: cell-based, murine; details: Mus musculus, ± S.E., read-out: ID50 (the source's name)
Method: as §1, with “mg/ml. The plate was incubated at 37° C. in a 5% CO2 incubator for 4 h.” for “mg/ml.”
as §2

[9] = system: P388 (R) cells; experiment: MTT cytotoxicity assay, AD 198-resistant P388 (R) cells; assay type: cell-based, murine; details: for IC50: Mus musculus, P388 (R), ± S.E., read-out: ID50 (the source's name); for RI: P388 (R) versus P388 (S); for cytotoxicity (in words): P388 AD 198-resistant
Method: In vitro drug cytotoxicites against KB 3-1 and KB V1 cells were assessed by using the MTT reduction assay, as previously reported (Green et al., J. Immunol. Methods., 70:257, 1984). The MTT dye was obtained from Sigma Chemical Company, St. Louis, Mo. Cells were plated in 96-well microassay culture plates (10^4 cells/well) and grown for 24 h at 37° C. in a 5% CO2 incubator. Drugs were then added to the wells to achieve a final drug concentration ranging from 0.1 to 50 μg/ml (eight wells were used for each different concentration). The same volume of 0.9% NaCl solution in water with 1% DMSO was added to control wells. Wells containing culture medium alone without cells were used as blanks. The plates were incubated at 37° C. in a 5% CO2 incubator for 1 h (KB cells). When incubation was complete, 15 μl of stock solution of MTT dye in 0.9% NaCl solution in water was added to each well to achieve a final dye concentration of 0.5 mg/ml. The plate was incubated at 37° C. in a 5% CO2 incubator for 4 h. Subsequently, 100 μl of medium was removed from each well from the upper ]K<id,KD layer, and 100 μl of DMSO was added to solubilize the MTT formazan. Complete solubilization was achieved by placing the plate in a mechanical shaker for 30 minutes at room temperature. The optical density of each well was then measured with a microplate spectrophotometer at a wavelength of 600 nm. The percent cell viability was calculated by the following equation: [formula]
as §3
An MTT assay to determine the cytotoxicity of WP 546 and WP 549 to AD 198-resistant {P 388 (R)} and AD 198-sensitive {P388 (S)} cells was performed in a manner similar to that described above.

[10] = system: tumor cells resistant to doxorubicin, AD 198, and vinblastine; experiment: Cytotoxicity against drug-resistant tumor cells (general statement); assay type: cell-based
[11] = KB 3-1 (S), MTT, 1 h drug incubation, read-out: ID50 (the source's name)
[12] = KB V1 (R), MTT, 1 h drug incubation, read-out: ID50 (the source's name)
[13] = J774.2, read-out: ID50 (the source's name)
[14] = J7/A300, read-out: ID50 (the source's name)
[15] = J7/40V, read-out: ID50 (the source's name)

SMILES | RI (ID50 KB V1/ID50 KB 3-1) [2] | RI J7/A300 [4] | RI J7/40V [5] | IC50 [1, 11] [µg/mL] | IC50 [2, 12] [µg/mL] | cytotoxicity (in words) [2] | IC50 [8] [µM] | IC50 [9] [µM] | RI [9] | cytotoxicity (in words) [9] | cytotoxicity (in words) ([3]; J774.2) | IC50 [3, 13] [µM] | cytotoxicity (in words) [4] | IC50 [4, 14] [µM] | cytotoxicity (in words) ([5]; J7/40V) | IC50 [5, 15] [µM] | cytotoxicity (in words) [10] | also measured
COc1cccc2c1C(=O)c1c(O)c3c(c(O)c1C2=O)C[C@@](O)(C(=O)CO)C[C@@H]3O[C@H]1C[C@H](N)[C@H](O)[C@H](C)O1 [Doxorubicin, doxorubicin] | 58.2 | 24 | 31 |  |  |  |  |  |  |  |  |  |  |  |  |  |  | IC50 ([1]; KB 3-1, 1 h, read-out: ID50): 1.1 µg/mL (≈ 2.02 µM); IC50 ([2]; KB-V1, 1 h, read-out: ID50): 64 µg/mL (≈ 118 µM); IC50 ([3]; J774.2, read-out: ID50): 0.024 µM; IC50 ([4]; read-out: ID50): 0.586 µM; IC50 ([5]; read-out: ID50): 0.755 µM; efficacy of 96-hr continuous infusion [6]: as effective as; toxicity of 96-hr continuous infusion [6]: much less toxic; adverse systemic effects ([7]; in vivo): acute myelosuppression, cumulative cardiotoxicity, and gastrointestinal toxicity; cardiomyopathy ([7]; related to total dose): unusual cardiomyopathy, the occurrence of which is related to the total dose of the drug; it is often irreversible
COc1cccc2c1C(=O)c1c(O)c3c(c(O)c1C2=O)C[C@@](O)(C(=O)CO)C[C@@H]3O[C@H]1C[C@H](OCc2ccccc2)[C@H](O)[C@H](C)O1 [WP 546, 7-O-(3-O-benzyl-2,6-dideoxy-α-L-lyxo-hexopyranosyl)adriamycinone] | 0.9 | 2.2 | 2.2 | 4.6 (≈ 7.25 µM) | 4.1 (≈ 6.46 µM) | unexpectedly more cytotoxic against MDR cells than against parent cells; also recorded: ability to kill DOX-resistant and vinblastine resistant cells; also recorded: shown to kill KB V1 cells | 0.92 ± 0.36 | 0.69 ± 0.23 | 0.8 | more cytotoxic towards cells selected for the resistance than that of a wild type; also recorded: demonstrated cytotoxicity | shown to kill KB V1 cells and J774.2 cells | 1.1 | demonstrated cytotoxicity | 2.43 | shown to have cytotoxic effects | 2.35 | surprisingly broad cytotoxicity; also recorded: unexpected cytotoxic activity; also recorded: very high cytotoxicity | cytotoxicity (in words) ([10]; listed as 3'-O-benzyl-doxorubicin): surprisingly similar in DOX-sensitive and DOX-resistant cell lines
CCCCC(=O)OCC(=O)[C@]1(O)Cc2c(O)c3c(c(O)c2[C@@H](O[C@H]2C[C@H](OCc4ccccc4)[C@H](O)[C@H](C)O2)C1)C(=O)c1c(OC)cccc1C3=O [WP 549, 7-O-(3-O-benzyl-2,6-dideoxy-α-L-lyxo-hexopyranosyl)-14-O-valeroyl-adriamycinone] | 0.5 | 1.9 | 2.3 | 8.9 (≈ 12.4 µM) | 4.7 (≈ 6.54 µM) | unexpectedly more cytotoxic against MDR cells than against parent cells; also recorded: ability to kill DOX-resistant and vinblastine resistant cells; also recorded: shown to kill KB V1 cells | 1.41 ± 0.23 | 0.73 ± 0.08 | 0.5 | more cytotoxic towards cells selected for the resistance than that of a wild type; also recorded: demonstrated cytotoxicity | shown to kill KB V1 cells and J774.2 cells | 1.43 | demonstrated cytotoxicity | 2.77 | shown to have cytotoxic effects | 3.15 | surprisingly broad cytotoxicity; also recorded: unexpected cytotoxic activity; also recorded: very high cytotoxicity | 
COc1cccc2c1C(=O)c1c(O)c3c(c(O)c1C2=O)C[C@@](O)(C(C)=O)C[C@@H]3O[C@H]1C[C@H](N)[C@H](O)[C@H](C)O1 [daunorubicin] |  |  |  |  |  |  |  |  |  |  |  |  |  |  |  |  |  | cardiomyopathy ([7]; in vivo): unusual cardiomyopathy, the occurrence of which is related to the total dose of the drug; it is often irreversible
CC[C@]1(O)C[C@@H]2CN(CCc3c([nH]c4ccccc34)[C@@](C(=O)OC)(c3cc4c(cc3OC)N(C)[C@H]3[C@@](O)(C(=O)OC)[C@H](OC(C)=O)[C@]5(CC)C=CCN6CC[C@]43[C@@H]65)C2)C1 [vinblastine, reference compound] |  |  |  |  |  |  |  |  |  |  |  |  |  |  |  |  |  | resistance of cell line to the selecting drug ([5]; J7/40V selected for resistance to vinblastine): 120 -fold
